# Measured values taken from PubChem BioAssay AID328 (DTP/NCI, 2004).
# Values joined by “and” are separate entries in the source; they are usually repeats but may differ in a detail not shown here. Identical values can stand only once. Toxic doses and inconclusive results are not listed.
# Test system: BDF1 mice, P388 leukemia ip, median survival T/C
# Assay: NCI In Vivo Anticancer Drug Screen. Data for tumor model P388 Leukemia (intraperitoneal) in B6D2F1 (BDF1) mice
# Settings: endpoint: median survival time, higher = longer survival
# Method in brief: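 Vehicle-dosed animals serve as the reference; survival of compound-dosed, tumour-implanted mice is divided by it.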
# [1] = dose: 150.0 mg/kg/injection, schedule: Q01DX009 (ip), vehicle: saline with Tween-80
# [2] = dose: 12.5 mg/kg/injection, schedule: Q01DX009 (ip), vehicle: Klucel (hydroxypropylcellulose) (HPC)
# [3] = dose: 25.0 mg/kg/injection, schedule: Q01DX009 (ip), vehicle: Klucel (hydroxypropylcellulose) (HPC)
# [4] = dose: 50.0 mg/kg/injection, schedule: Q04DX003 (ip), vehicle: Klucel (hydroxypropylcellulose) (HPC)
# [5] = dose: 100.0 mg/kg/injection, schedule: Q01DX009 (ip), vehicle: Klucel (hydroxypropylcellulose) (HPC)
# [6] = dose: 100.0 mg/kg/injection, schedule: Q04DX003 (ip), vehicle: Klucel (hydroxypropylcellulose) (HPC)
# [7] = dose: 200.0 mg/kg/injection, schedule: Q01DX009 (ip), vehicle: Klucel (hydroxypropylcellulose) (HPC)
# [8] = dose: 200.0 mg/kg/injection, schedule: Q04DX003 (ip), vehicle: Klucel (hydroxypropylcellulose) (HPC)
# [9] = dose: 400.0 mg/kg/injection, schedule: Q01DX009 (ip), vehicle: Klucel (hydroxypropylcellulose) (HPC)
# [10] = dose: 400.0 mg/kg/injection, schedule: Q04DX003 (ip), vehicle: Klucel (hydroxypropylcellulose) (HPC)
# [11] = dose: 100.0 mg/kg/injection, schedule: Q01DX001 (ip), vehicle: Klucel (hydroxypropylcellulose) (HPC)
# [12] = dose: 100.0 mg/kg/injection, schedule: Q04DX003 (ip), vehicle: saline with Tween-80
# [13] = dose: 200.0 mg/kg/injection, schedule: Q01DX001 (ip), vehicle: Klucel (hydroxypropylcellulose) (HPC)
# [14] = dose: 200.0 mg/kg/injection, schedule: Q04DX003 (ip), vehicle: saline with Tween-80
# [15] = dose: 400.0 mg/kg/injection, schedule: Q01DX001 (ip), vehicle: Klucel (hydroxypropylcellulose) (HPC)
# [16] = dose: 400.0 mg/kg/injection, schedule: Q04DX003 (ip), vehicle: saline with Tween-80
# [17] = dose: 50.0 mg/kg/injection, schedule: Q01DX009 (ip), vehicle: Klucel (hydroxypropylcellulose) (HPC)
# [18] = dose: 6.25 mg/kg/injection, schedule: Q01DX009 (ip), vehicle: saline with Tween-80
compound,measurement,setting,value
c1cc[c]([Pb]([c]2ccccc2)([c]2ccccc2)[n]2ccc3ccccc32)cc1,T/C,"dose: 0.78 mg/kg/injection, schedule: Q01DX009 (ip), vehicle: saline",100 % of control
same,T/C,"dose: 1.05 mg/kg/injection, schedule: Q01DX009 (ip), vehicle: Klucel (hydroxypropylcellulose) (HPC)",103 % of control
same,T/C,"dose: 1.05 mg/kg/injection, schedule: Q01DX009 (ip), vehicle: other",108 % of control
same,T/C,"dose: 2.05 mg/kg/injection, schedule: Q01DX009 (ip), vehicle: saline",115 % of control
same,T/C,"dose: 2.08 mg/kg/injection, schedule: Q01DX009 (ip), vehicle: Klucel (hydroxypropylcellulose) (HPC)",94 % of control
same,T/C,"dose: 2.08 mg/kg/injection, schedule: Q01DX009 (ip), vehicle: other",108 % of control and 109 % of control
same,T/C,"dose: 3.12 mg/kg/injection, schedule: Q01DX009 (ip), vehicle: Klucel (hydroxypropylcellulose) (HPC)",108 % of control
same,T/C,"dose: 3.12 mg/kg/injection, schedule: Q01DX009 (ip), vehicle: other",100 % of control
same,T/C,"dose: 4.68 mg/kg/injection, schedule: Q01DX009 (ip), vehicle: Klucel (hydroxypropylcellulose) (HPC)",109 % of control
O=C1c2ccc(O)cc2C(=O)c2ccc(O)cc21,T/C,"dose: 66.0 mg/kg/injection, schedule: Q01DX009 (ip), vehicle: saline with Tween-80",109 % of control
same,T/C,"dose: 100.0 mg/kg/injection, schedule: Q01DX009 (ip), vehicle: saline with Tween-80",109 % of control
same,T/C,[1],109 % of control
same,T/C,"dose: 400.0 mg/kg/injection, schedule: Q01DX009 (ip), vehicle: saline with Tween-80",120 % of control
CCCC(=O)c1ccco1,T/C,"dose: 50.0 mg/kg/injection, schedule: Q01DX009 (ip), vehicle: saline with Tween-80",101 % of control
NC(CO)Cc1ccccc1 (stereo not given),T/C,[2],106 % of control
same,T/C,[3],91 % of control
CN(N=O)C(=O)N[C@@H](C=O)[C@@H](O)[C@H](O)[C@H](O)CO,T/C,"dose: 17.0 mg/kg/injection, schedule: Q01DX009 (ip), vehicle: water",118 % of control
same,T/C,"dose: 39.0 mg/kg/injection, schedule: Q01DX009 (ip), vehicle: water",161 % of control
same,T/C,"dose: 40.0 mg/kg/injection, schedule: Q01DX010 (ip), vehicle: other",154 % of control
same,T/C,"dose: 50.0 mg/kg/injection, schedule: Q01DX009 (ip), vehicle: other",171 % of control
same,T/C,"dose: 58.0 mg/kg/injection, schedule: Q01DX009 (ip), vehicle: water",157 % of control and 181 % of control
same,T/C,"dose: 80.0 mg/kg/injection, schedule: Q01DX010 (ip), vehicle: other",118 % of control
same,T/C,"dose: 87.0 mg/kg/injection, schedule: Q01DX009 (ip), vehicle: water",154 % of control and 170 % of control
same,T/C,"dose: 100.0 mg/kg/injection, schedule: Q04DX002 (ip), vehicle: saline",109 % of control
same,T/C,"dose: 130.0 mg/kg/injection, schedule: Q01DX009 (ip), vehicle: water",89 % of control
same,T/C,"dose: 200.0 mg/kg/injection, schedule: Q04DX002 (ip), vehicle: saline",100 % of control
same,T/C,"dose: 400.0 mg/kg/injection, schedule: Q04DX002 (ip), vehicle: saline",109 % of control
CCC(=O)Nc1cc(Cl)ccc1C,T/C,[4],118 % of control
same,T/C,[5],109 % of control
same,T/C,[6],109 % of control
same,T/C,[7],90 % of control
same,T/C,[8],104 % of control
same,T/C,[9],90 % of control
same,T/C,[10],100 % of control
O=C1c2ccccc2CCC12OC2c1ccc(Cl)cc1 (stereo not given),T/C,[11],95 % of control
same,T/C,[6],100 % of control
same,T/C,[12],91 % of control
same,T/C,[13],100 % of control
same,T/C,[8],104 % of control
same,T/C,[14],104 % of control
same,T/C,[15],90 % of control
same,T/C,[10],104 % of control
same,T/C,[16],95 % of control
Cc1ccc(S(=O)(=O)N(CCO)CC(C)O)cc1 (stereo not given),T/C,[5],100 % of control
same,T/C,[7],100 % of control
same,T/C,[9],100 % of control
CCN(CC)CCNc1ccc(N=Nc2ccc(SC)cc2)c2ccccc12,T/C,[3],105 % of control
same,T/C,[17],100 % of control
same,T/C,[4],100 % of control
same,T/C,[5],105 % of control
same,T/C,[6],104 % of control
same,T/C,[8],90 % of control
NCCCNCCCCNCCCN,T/C,"dose: 50.0 mg/kg/injection, schedule: Q01DX001 (ip), vehicle: saline",110 % of control
Nc1nc(N)c2c(Cl)c(CNc3ccc(Cl)c(Cl)c3)ccc2n1,T/C,[18],154 % of control
same,T/C,"dose: 6.25 mg/kg/injection, schedule: Q01DX009 (ip), vehicle: water",123 % of control
same,T/C,"dose: 12.5 mg/kg/injection, schedule: Q01DX009 (ip), vehicle: saline with Tween-80",169 % of control
same,T/C,"dose: 12.5 mg/kg/injection, schedule: Q01DX009 (ip), vehicle: water",179 % of control
same,T/C,"dose: 25.0 mg/kg/injection, schedule: Q01DX009 (ip), vehicle: water",203 % of control
same,T/C,"dose: 25.0 mg/kg/injection, schedule: Q04DX003 (ip), vehicle: water",116 % of control
same,T/C,"dose: 50.0 mg/kg/injection, schedule: Q01DX009 (ip), vehicle: water",88 % of control
same,T/C,"dose: 50.0 mg/kg/injection, schedule: Q04DX003 (ip), vehicle: water",169 % of control
same,T/C,"dose: 100.0 mg/kg/injection, schedule: Q04DX003 (ip), vehicle: water",153 % of control and 173 % of control
same,T/C,"dose: 300.0 mg/kg/injection, schedule: Q04DX003 (ip), vehicle: water",86 % of control
O=C(O)CCc1ccccc1,T/C,"dose: 75.0 mg/kg/injection, schedule: Q01DX009 (ip), vehicle: saline with Tween-80",95 % of control
same,T/C,[11],104 % of control
same,T/C,[1],109 % of control
same,T/C,[13],100 % of control
same,T/C,"dose: 300.0 mg/kg/injection, schedule: Q01DX009 (ip), vehicle: saline with Tween-80",100 % of control
same,T/C,[15],100 % of control
CN(C)C=Nc1ccc2c3c(cccc13)CC2,T/C,"dose: 6.25 mg/kg/injection, schedule: Q01DX009 (ip), vehicle: Klucel (hydroxypropylcellulose) (HPC)",103 % of control
same,T/C,[2],99 % of control
same,T/C,"dose: 16.6 mg/kg/injection, schedule: Q01DX009 (ip), vehicle: Klucel (hydroxypropylcellulose) (HPC)",115 % of control
same,T/C,[3],114 % of control
COc1ccc(NC(=O)C(C)C(C)=O)cc1 (stereo not given),T/C,"dose: 12.5 mg/kg/injection, schedule: Q01DX009 (ip), vehicle: saline",91 % of control
same,T/C,"dose: 25.0 mg/kg/injection, schedule: Q01DX009 (ip), vehicle: saline",94 % of control
same,T/C,"dose: 25.0 mg/kg/injection, schedule: Q04DX003 (ip), vehicle: saline",102 % of control
same,T/C,"dose: 50.0 mg/kg/injection, schedule: Q01DX009 (ip), vehicle: saline",98 % of control
same,T/C,"dose: 50.0 mg/kg/injection, schedule: Q04DX003 (ip), vehicle: saline",93 % of control
same,T/C,"dose: 100.0 mg/kg/injection, schedule: Q01DX009 (ip), vehicle: saline",116 % of control
same,T/C,"dose: 100.0 mg/kg/injection, schedule: Q04DX003 (ip), vehicle: saline",100 % of control
same,T/C,"dose: 200.0 mg/kg/injection, schedule: Q01DX009 (ip), vehicle: saline",100 % of control
same,T/C,"dose: 200.0 mg/kg/injection, schedule: Q04DX003 (ip), vehicle: saline",109 % of control
same,T/C,"dose: 400.0 mg/kg/injection, schedule: Q01DX009 (ip), vehicle: saline",108 % of control
same,T/C,"dose: 400.0 mg/kg/injection, schedule: Q04DX003 (ip), vehicle: saline",111 % of control
CCC(C)n1ncc2c(N(C)C)ncnc21 (stereo not given),T/C,[2],100 % of control
same,T/C,[17],92 % of control and 95 % of control
same,T/C,[6],95 % of control
same,T/C,[8],120 % of control
Cc1ccc(C2(C(=O)O)CC2)cc1,T/C,[12],100 % of control
same,T/C,[14],104 % of control
same,T/C,[16],108 % of control
CN(C)c1ccc(/C=C/c2nccc3ccccc23)cc1,T/C,"dose: 0.78 mg/kg/injection, schedule: Q01DX009 (ip), vehicle: saline with Tween-80",114 % of control
same,T/C,"dose: 1.56 mg/kg/injection, schedule: Q01DX009 (ip), vehicle: saline with Tween-80",112 % of control
same,T/C,"dose: 3.13 mg/kg/injection, schedule: Q01DX009 (ip), vehicle: saline with Tween-80",102 % of control
same,T/C,[18],107 % of control and 110 % of control
